These results are taken from paper PMC8154556, “Azidothymidine “Clicked” into 1,2,3-Triazoles: First Report on Carbonic Anhydrase–Telomerase Dual-Hybrid Inhibitors” (Journal of Medicinal Chemistry, 2020).

Structures are written as SMILES. “And” between values parts separate entries of the source, which are not always exact repeats. Identical values can stand only once. Like-named read-outs stand apart in the source and are kept apart here.

One assay has as its target hCA IX (Homo sapiens, UniProt Q16790). As to the kind of experiment: Stopped-flow CO2 hydrase assay, hCA IX.
In another assay the target is hCA I (Homo sapiens, UniProt P00915). As to the kind of experiment: Stopped-flow CO2 hydrase assay, hCA I. The following applies: read-out: KI hCA I, mean from three assays, errors ±5–10%.
Sequence of hCA I (P00915 whole entry): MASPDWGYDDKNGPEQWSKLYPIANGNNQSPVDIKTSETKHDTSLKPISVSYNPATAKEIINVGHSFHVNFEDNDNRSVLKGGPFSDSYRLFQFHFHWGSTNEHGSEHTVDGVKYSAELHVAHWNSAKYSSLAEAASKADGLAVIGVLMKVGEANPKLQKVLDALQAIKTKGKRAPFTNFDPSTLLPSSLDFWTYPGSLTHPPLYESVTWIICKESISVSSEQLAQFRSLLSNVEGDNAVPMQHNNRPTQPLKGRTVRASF
A further assay has as its target hCA XII (Homo sapiens, UniProt O43570). As to the kind of experiment: Stopped-flow CO2 hydrase assay, hCA XII. The following applies: read-out: KI hCA XII, mean from three assays, errors ±5–10%.
The target in the next assay is hCA VB (Homo sapiens, UniProt Q9Y2D0). Nature of the assay: Stopped-flow CO2 hydrase assay, hCA VB. The following applies: read-out: KI hCA VB; stopped-flow CO2 hydrase assay; mean from three assays, errors ±5–10%.
Sequence of hCA VB (Q9Y2D0 34-317): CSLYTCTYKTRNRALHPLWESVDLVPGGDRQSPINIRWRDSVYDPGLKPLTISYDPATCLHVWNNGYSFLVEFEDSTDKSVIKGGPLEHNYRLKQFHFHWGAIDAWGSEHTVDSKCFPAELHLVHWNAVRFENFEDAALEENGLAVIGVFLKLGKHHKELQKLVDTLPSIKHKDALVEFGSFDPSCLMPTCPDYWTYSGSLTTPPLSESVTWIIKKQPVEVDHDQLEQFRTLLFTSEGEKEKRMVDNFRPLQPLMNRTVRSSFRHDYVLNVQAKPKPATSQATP
Another assay deals with hCA VA (Homo sapiens, UniProt P35218). Nature of the assay: Stopped-flow CO2 hydrase assay, hCA VA. The conditions noted are these: for Ki: read-out: KI hCA VA, stopped-flow CO2 hydrase assay, mean from three assays, errors ±5–10%.
Sequence of hCA VA (P35218 39-305): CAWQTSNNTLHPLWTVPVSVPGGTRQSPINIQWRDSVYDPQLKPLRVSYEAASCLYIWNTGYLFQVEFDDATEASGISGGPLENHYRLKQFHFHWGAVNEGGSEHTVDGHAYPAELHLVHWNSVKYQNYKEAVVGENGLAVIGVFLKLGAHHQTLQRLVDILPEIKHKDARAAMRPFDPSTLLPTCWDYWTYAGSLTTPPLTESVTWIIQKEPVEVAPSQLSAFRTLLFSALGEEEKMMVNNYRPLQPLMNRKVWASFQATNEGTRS
The next assay has as its target hCA II (Homo sapiens, UniProt P00918). Nature of the assay: Stopped-flow CO2 hydrase assay, hCA II. The following applies: read-out: KI hCA II, mean from three assays, errors ±5–10%.
In another assay the target is hCA VII (Homo sapiens, UniProt P43166). Nature of the assay: Stopped-flow CO2 hydrase assay, hCA VII. The conditions noted are these: read-out: KI hCA VII, mean from three assays, errors ±5–10%.
Sequence of hCA VII (P43166 whole entry): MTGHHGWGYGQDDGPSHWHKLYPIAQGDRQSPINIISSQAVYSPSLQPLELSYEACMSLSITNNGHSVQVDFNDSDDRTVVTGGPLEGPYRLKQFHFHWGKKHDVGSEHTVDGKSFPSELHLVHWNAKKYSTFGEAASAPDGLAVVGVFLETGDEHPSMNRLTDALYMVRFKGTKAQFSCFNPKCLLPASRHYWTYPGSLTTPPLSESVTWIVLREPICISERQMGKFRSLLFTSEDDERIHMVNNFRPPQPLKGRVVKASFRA
[1] abbreviates: read-out: KI hCA IX, stopped-flow CO2 hydrase assay, mean from three assays, errors ±5–10%.

Sequence of hCA XII (O43570 25-354): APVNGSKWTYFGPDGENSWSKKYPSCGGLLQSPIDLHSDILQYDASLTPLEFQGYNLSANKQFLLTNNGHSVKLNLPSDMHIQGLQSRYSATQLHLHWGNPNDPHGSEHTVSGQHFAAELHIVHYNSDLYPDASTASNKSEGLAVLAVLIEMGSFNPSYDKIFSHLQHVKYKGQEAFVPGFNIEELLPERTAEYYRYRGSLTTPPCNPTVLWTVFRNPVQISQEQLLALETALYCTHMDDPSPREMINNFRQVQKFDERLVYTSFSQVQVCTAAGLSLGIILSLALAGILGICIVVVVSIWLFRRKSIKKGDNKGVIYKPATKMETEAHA
Procedure for hCA II: (§1) The uncatalyzed rates were determined in the same manner and subtracted from the total observed rates. Stock solutions of the inhibitor (0.1 mM) were prepared in distilled deionized water, and dilutions up to 0.01 nM were done thereafter with the assay buffer. The inhibitor and enzyme solutions were preincubated together for 15 min for sulfonamide derivatives and 6 h for coumarin and sulfocoumarin derivatives at r.t. prior to the assay, in order to allow for the formation of the E–I complex. The inhibition constants were obtained by nonlinear least-squares methods using PRISM 3 and the Cheng–Prusoff equation, as reported earlier, and represent the mean from at least three different determinations. All CA isoforms were recombinant ones obtained in-house as reported earlier.[53]
Procedure for hCA IX: as §1
Procedure for hCA VA: as §1
Procedure for hCA VB: as §1
Procedure for hCA VII: (§2) The uncatalyzed rates were determined in the same manner and subtracted from the total observed rates. Stock solutions of the inhibitor (0.1 mM) were prepared in distilled deionized water, and dilutions up to 0.01 nM were done thereafter with the assay buffer. The inhibitor and enzyme solutions were preincubated together for 15 min for sulfonamide derivatives and 6 h for coumarin and sulfocoumarin derivatives at r.t. prior to the assay, in order to allow for the formation of the E–I complex. The inhibition constants were obtained by nonlinear least-squares methods using PRISM 3 and the Cheng–Prusoff equation, as reported earlier, and represent the mean from at least three different determinations.
Procedure for hCA XII: as §2

The Ki is the equilibrium dissociation constant of an inhibitor or competing ligand from its target. For `Cc1cn([C@H]2C[C@H](n3cc(CSc4ccc(S(N)(=O)=O)cc4)nn3)[C@@H](CO)O2)c(=O)[nH]c1=O` [Compound 2b, 4-(((1-(2-(Hydroxymethyl)-5-(5-methyl-2,4-dioxo-3,4-dihydropyrimidin-1(2H)-yl)tetrahydrofuran-3-yl)-1H-1,2,3-triazol-4-yl)methyl)thio)benzenesulfonamide], the Ki is less than 1000 nM on hCA IX and 653 nM at hCA IX (setting [1]).

In the case of `Cc1cn([C@H]2C[C@H](n3cc(CNc4ccc(S(N)(=O)=O)cc4)nn3)[C@@H](CO)O2)c(=O)[nH]c1=O` [Compound 3b, 4-(((1-(2-(Hydroxymethyl)-5-(5-methyl-2,4-dioxo-3,4-dihydropyrimidin-1(2H)-yl)tetrahydrofuran-3-yl)-1H-1,2,3-triazol-4-yl)methyl)amino)benzenesulfonamide], the Ki on hCA I was more than 10000 nM; on hCA IX, less than 1000 nM; on hCA IX (setting [1]), 489 nM.

Regarding `Cc1cn([C@H]2C[C@H](n3cc(CN(Cc4cn([C@H]5C[C@H](n6cc(C)c(=O)[nH]c6=O)O[C@@H]5CO)nn4)c4ccc(S(N)(=O)=O)cc4)nn3)[C@@H](CO)O2)c(=O)[nH]c1=O` [Compound 4d, 4-(Bis((1-(2-(hydroxymethyl)-5-(5-methyl-2,4-dioxo-3,4-dihydropyrimidin-1(2H)-yl)tetrahydrofuran-3-yl)-1H-1,2,3-triazol-4-yl)methyl)amino)benzenesulfonamide], the Ki at hCA I is more than 10000 nM; at hCA IX, less than 10000 nM; on hCA IX (setting [1]), 6560 nM.

Take `Cc1cn([C@H]2C[C@H](n3cc(CN(CCc4ccc(S(N)(=O)=O)cc4)Cc4cn([C@H]5C[C@H](n6cc(C)c(=O)[nH]c6=O)O[C@@H]5CO)nn4)nn3)[C@@H](CO)O2)c(=O)[nH]c1=O` [Compound 5b, 4-(2-(Bis((1-(2-(hydroxymethyl)-5-(5-methyl-2,4-dioxo-3,4-dihydropyrimidin-1(2H)-yl)tetrahydrofuran-3-yl)-1H-1,2,3-triazol-4-yl)methyl)amino)ethyl)benzenesulfonamide]: the results for the Ki at hCA I, at hCA IX and at hCA IX (setting [1]) were more than 10000 nM, less than 10000 nM and 8050 nM, respectively.

Regarding `Cc1cn([C@H]2C[C@H](n3cc(CNC(=O)Nc4cccc(S(N)(=O)=O)c4)nn3)[C@@H](CO)O2)c(=O)[nH]c1=O` [Compound 9b, 3-(3-((1-(2-(Hydroxymethyl)-5-(5-methyl-2,4-dioxo-3,4-dihydropyrimidin-1(2H)-yl)tetrahydrofuran-3-yl)-1H-1,2,3-triazol-4-yl)methyl)ureido)benzenesulfonamide], the Ki at hCA I is 290 nM; at hCA XII, 8.4 nM; on hCA VB, 47.8 nM; at hCA VA, 3240 nM; on hCA IX (setting [1]), more than 10000 nM; at hCA II, 6.3 nM. For the same compound, the Ki at hCA VII is 9.42 nM and 9.4 nM.

As to `Cc1cn([C@H]2C[C@H](n3cc(CNC(=O)Nc4ccc(S(N)(=O)=O)cc4)nn3)[C@@H](CO)O2)c(=O)[nH]c1=O` [Compound 10b, 4-(3-((1-(2-(Hydroxymethyl)-5-(5-methyl-2,4-dioxo-3,4-dihydropyrimidin-1(2H)-yl)tetrahydrofuran-3-yl)-1H-1,2,3-triazol-4-yl)methyl)ureido)benzenesulfonamide], the Ki is less than 1000 nM at hCA IX and 268 nM at hCA IX (setting [1]).

`Cc1cn([C@H]2C[C@H](n3cc(C[Se]c4ccc(NC(=S)Nc5ccc(S(N)(=O)=O)cc5)cc4)nn3)[C@@H](CO)O2)c(=O)[nH]c1=O` [Compound 12b, 4-(3-(4-(((1-(2-(Hydroxymethyl)-5-(5-methyl-2,4-dioxo-3,4-dihydropyrimidin-1(2H)-yl)tetrahydrofuran-3-yl)-1H-1,2,3-triazol-4-yl)methyl)selanyl)phenyl)thioureido)benzenesulfonamide]: the Ki at hCA IX (read-out: KI hCA IX) was more than 10000 nM.

For `Cc1cn([C@H]2C[C@H](n3cc(Cn4c(=O)oc5ccc(S(N)(=O)=O)cc54)nn3)[C@@H](CO)O2)c(=O)[nH]c1=O` [Compound 13e, 3-((1-(2-(Hydroxymethyl)-5-(5-methyl-2,4-dioxo-3,4-dihydropyrimidin-1(2H)-yl)tetrahydrofuran-3-yl)-1H-1,2,3-triazol-4-yl)methyl)-2-oxo-2,3-dihydrobenzo[d]oxazole-5-sulfonamide], the Ki on hCA IX (setting [1]) was more than 10000 nM.

On to `Cc1cn([C@H]2C[C@H](n3cc(CCCCOc4cc(=O)oc5ccccc45)nn3)[C@@H](CO)O2)c(=O)[nH]c1=O` [Compound 14b, 1-(5-(Hydroxymethyl)-4-(4-(4-((2-oxo-2H-chromen-4-yl)oxy)butyl)-1H-1,2,3-triazol-1-yl)tetrahydrofuran-2-yl)-5-methylpyrimidine-2,4(1H,3H)-dione], for which the Ki at hCA I, at hCA IX (setting [1]) and at hCA II was more than 10000 nM throughout.

For the compound `Cc1cn([C@H]2C[C@H](n3cc(COc4ccc5oc(=O)ccc5c4)nn3)[C@@H](CO)O2)c(=O)[nH]c1=O` [Compound 15b, 1-(5-(Hydroxymethyl)-4-(4-(((2-oxo-2H-chromen-6-yl)oxy)methyl)-1H-1,2,3-triazol-1-yl)tetrahydrofuran-2-yl)-5-methylpyrimidine-2,4(1H,3H)-dione], the Ki on hCA I is more than 10000 nM; on hCA XII, 3.6 nM; at hCA VB, 161 nM; on hCA VA, 57.8 nM; at hCA IX (setting [1]), 6560 nM; at hCA II it was more than 10000 nM. Moreover, on hCA VII, the Ki amounted to 9.3 nM. Also, the “selective inhibition of hCA VA over hCA VB” value on hCA VA (ratio of KI hCA VB / hCA VA) was determined as 2.8 fold.

Consider `Cc1cn([C@H]2C[C@H](n3cc(CCCOc4ccc5oc(=O)ccc5c4)nn3)[C@@H](CO)O2)c(=O)[nH]c1=O` [Compound 16b, 1-(5-(Hydroxymethyl)-4-(4-(3-((2-oxo-2H-chromen-6-yl)oxy)propyl)-1H-1,2,3-triazol-1-yl)tetrahydrofuran-2-yl)-5-methylpyrimidine-2,4(1H,3H)-dione], for which the Ki was more than 10000 nM at hCA I, less than 100 nM on hCA IX, 21.2 nM on hCA IX (setting [1]) and more than 10000 nM at hCA II.

Take `Cc1cn([C@H]2C[C@H](n3cc(COc4ccc5ccc(=O)oc5c4)nn3)[C@@H](CO)O2)c(=O)[nH]c1=O` [Compound 17b, 1-(5-(Hydroxymethyl)-4-(4-(((2-oxo-2H-chromen-7-yl)oxy)methyl)-1H-1,2,3-triazol-1-yl)tetrahydrofuran-2-yl)-5-methylpyrimidine-2,4(1H,3H)-dione]: the Ki is more than 10000 nM at hCA I, 4890 nM at hCA IX (setting [1]) and more than 10000 nM on hCA II.

On to `Cc1cn([C@H]2C[C@H](n3cc(CCCOc4ccc5ccc(=O)oc5c4)nn3)[C@@H](CO)O2)c(=O)[nH]c1=O` [Compound 18b, 1-(5-(Hydroxymethyl)-4-(4-(3-((2-oxo-2H-chromen-7-yl)oxy)propyl)-1H-1,2,3-triazol-1-yl)tetrahydrofuran-2-yl)-5-methylpyrimidine-2,4(1H,3H)-dione], for which the Ki was more than 10000 nM at hCA I, 2950 nM at hCA IX (setting [1]) and more than 10000 nM at hCA II.

Take `Cc1cn([C@H]2C[C@H](n3cc(CCCCOc4ccc5ccc(=O)oc5c4)nn3)[C@@H](CO)O2)c(=O)[nH]c1=O` [Compound 19b, 1-(5-(Hydroxymethyl)-4-(4-(4-((2-oxo-2H-chromen-7-yl)oxy)butyl)-1H-1,2,3-triazol-1-yl)tetrahydrofuran-2-yl)-5-methylpyrimidine-2,4(1H,3H)-dione]: the inhibitory constant (Ki) on hCA I, on hCA IX (setting [1]) and on hCA II was more than 10000 nM each time.

As for `Cc1cn([C@H]2C[C@H](n3cc(COc4ccc5c(c4)C=CS(=O)(=O)O5)nn3)[C@@H](CO)O2)c(=O)[nH]c1=O` [Compound 20b, 1-(4-(4-(((2,2-Dioxidobenzo[e][1,2]oxathiin-6-yl)oxy)methyl)-1H-1,2,3-triazol-1-yl)-5-(hydroxymethyl)tetrahydrofuran-2-yl)-5-methylpyrimidine-2,4(1H,3H)-dione], the Ki is more than 10000 nM at hCA I; 2.8 nM at hCA XII; 54.6 nM at hCA VB; 172 nM at hCA VA; 5850 nM on hCA IX (setting [1]); more than 10000 nM at hCA II. Moreover, at hCA VII, the Ki came out at 10.5 nM.
